What follows are compounds tested against T1, p53-Mdm2 interaction (N-terminal domain of Mdm2 protein, amino acids 1-111) (Homo sapiens, UniProt Q00987) (assay: Fluorescence polarization (FP) binding assay of p53-Mdm2 interaction). Conditions: FP assay, 130 nM Mdm2, FAM-labelled p53 peptide; Ki transformed from IC50 using Kenakin equation.
T1 construct: N-terminal domain of Mdm2 protein (amino acids 1-111)
T1 sequence (Q00987 1-111): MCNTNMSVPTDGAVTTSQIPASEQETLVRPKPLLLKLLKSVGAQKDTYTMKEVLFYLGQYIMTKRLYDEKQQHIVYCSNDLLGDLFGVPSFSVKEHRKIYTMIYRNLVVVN
Procedure: The inhibition of p53-Mdm2 interaction was measured using a fluorescence polarization (FP) binding assay. FP measures the rotational movement of molecules in a homogenous suspension. For this assay, N-terminal domain of Mdm2 protein (amino acids 1-111) is combined with a fluorescein-labelled (FAM) peptide derived from p53 trans-activation domain. Upon excitation of the fluorescent ligand with linearly polarized light, […]. If the peptide is bound by Mdm2, rotation will slow down and the perpendicular component will decrease. Disruption of the formation of the peptide-Mdm2 complex due to an inhibitor molecule binding to the p53 binding site of Mdm2 results in faster rotation of the peptide.
Fluorescence polarization experiments were read on Tecan Infinite M1000 reader with the 470 nm excitation and 520 nm emission filters for fluorescein. The fluorescence polarization was measured in black 96-well plates (Corning, CLS3991) in room temperature. Purity of Mdm2 was controlled at >95%. Reaction buffer was optimized by adding 5 mM DTT and 0.1% zwitterionic detergent CHAPS to reduce effect of nonspecific interactions.
The test was performed by combining successive dilution of compounds diluted in dimethyl sulfoxide (DMSO, 5% final concentration) with 130 nM Mdm2 in reaction buffer (PBS, 0.1% CHAPS, 5 mM DTT (dithiothreitol)). After 15 minutes of incubation in room temperature […] FAM-labelled peptide was added. Final reading was performed after 90 minutes of incubation. Dose-dependent binding curves and IC50 values were calculated using GraphPad Prism5 and next transformed to Ki values using Kenakin equation.
O=C1C(O)=C(c2ccccc2)C2(C(=O)Nc3ccc(Cl)cc32)N1c1cccc(Cl)c1 (centres unmarked) [Compound 38, 5-chloro-1′-(3-chlorophenyl)-4′-hydroxy-3′-phenyl-1,1′,2,5′-tetrahydrospiro[indole-3,2′-pyrrole]-2,5′-dione] showed a Ki of 550 nM.
COc1ccccc1-n1nc2c(c1C(C)C)C1(C(=O)Nc3cc(Cl)ccc31)N(c1cc(Cl)c(=O)n(C)c1)C2=O (centres unmarked) [Compound 63, 6-chloro-5′-(5-chloro-1-methyl-6-oxo-1,6-dihydropyridin-3-yl)-2′-(2-methoxy-phenyl)-3′-(propan-2-yl)-1,2,5′,6′-tetrahydro-2′H-spiro[indole-3,4′-pyrrolo [3,4-c]pyrazole]-2,6′-dione] showed a Ki of 2.4 nM.
Work on CC1(C(=O)C2=C(O)C(=O)N(c3cc(Cl)ccc3F)C23C(=O)Nc2cc(Cl)ccc23)CC1 (centres unmarked) [Compound 1, 6-chloro-1′-(5-chloro-2-fluorophenyl)-4′-hydroxy-3′-(1-methylcyclopropane-carbonyl)-1,1′,2,5′-tetrahydrospiro[indole-3,2′-pyrrole]-2,5′-dione] yielded a Ki of 354 nM.
Compound COc1ccccc1-n1cc2c(c1C(C)C)C1(C(=O)Nc3cc(Cl)ccc31)N(c1cc(Cl)ccc1N)C2=O (centres unmarked) [Compound 91, 2′-(2-amino-5-chlorophenyl)-6-chloro-5′-(2-methoxyphenyl)-6′-(propan-2-yl)-1,2,3′,5′-tetrahydro-2′H-spiro[indole-3,1′-pyrrolo[3,4-c]pyrrole]-2,3′-dione] has a Ki of 4.5 nM.
O=C1C(O)=C(Sc2ccc(Cl)cc2)C2(C(=O)Nc3cc(Cl)ccc32)N1c1cccc(Cl)c1 (centres unmarked) [Compound 54, 6-chloro-1′-(3-chlorophenyl)-3′-[(4-chlorophenyl)sulfanyl]-4′-hydroxy-1,1′,2,5′-tetrahydrospiro[indole-3,2′-pyrrole]-2,5′-dione] showed a Ki of 123 nM.
With COc1ccccc1-n1cc2c(c1C(C)C)C1(C(=O)Nc3cc(Cl)ccc31)N(c1cccc(Cl)c1)C2=O (centres unmarked) [Compound 89, 6-chloro-2′-(3-chlorophenyl)-5′-(2-methoxyphenyl)-6′-(propan-2-yl)-1,2,3′,5′-tetrahydro-2′H-spiro[indole-3,1′-pyrrolo [3,4-c]pyrrole]-2,3′-dione] the Ki was 5.3 nM.
CCOC(=O)/C=C/C(=O)Nc1cccc(C(=O)C2=C(O)C(=O)N(c3cccc(Cl)c3)C23C(=O)Nc2cc(Cl)ccc23)c1 (centres unmarked) [Compound 17, ethyl (2E)-3-[(3-{[6-chloro-1′-(3-chloro-phenyl)-4′-hydroxy-2,5′-dioxo-1,1′,2,5′-tetrahydrospiro[indole-3,2′-pyrrole]-3′-yl]carbonyl}phenyl)carbamoyl]prop-2-enoate] was tested, and the Ki was 57 nM.
Work on CC(C)(C)SC1=C(O)C(=O)N(c2cccc(Cl)c2)C12C(=O)Nc1cc(Cl)ccc12 (centres unmarked) [Compound 58, 3′-(tert-butylsulfanyl)-6-chloro-1′-(3-chlorophenyl)-4′-hydroxy-1,1′,2,5′-tetrahydrospiro[indole-3,2′-pyrrole]-2,5′-dione] yielded a Ki of 82 nM.
CC(C)C(=O)C1=C(O)C(=O)N(c2cc(Cl)ccc2O)C12C(=O)Nc1cc(Cl)ccc12 (centres unmarked) [Compound 9, 6-chloro-1′-(5-chloro-2-hydroxyphenyl)-4′-hydroxy-3′-(iso-propanoyl)-1,1′,2,5′-tetrahydrospiro[indole-3,2′-pyrrole]-2,5′-dione] gave a Ki of 268 nM.
Compound COc1ccccc1-n1nc(C(C)C)c2c1C(=O)N(c1cc(Cl)ccc1C)C21C(=O)Nc2cc(Cl)ccc21 (centres unmarked) [Compound 32, 6-chloro-5′-(5-chloro-2-methylphenyl)-1′-(2-methoxyphenyl)-3′-(propan-2-yl)-1,2,5′,6′-tetrahydro-1′H-spiro[indole-3,4′-pyrrolo[3,4-c]pyrazole]-2,6′-dione] has a Ki of 1390 nM.
Compound CC(C)c1[nH]nc2c1C1(C(=O)Nc3cc(Cl)ccc31)N(c1cncc(Cl)c1)C2=O (centres unmarked) [Compound 83, 6-chloro-5′-(5-chloropyridin-3-yl)-3′-(propan-2-yl)-1,2,5′,6′-tetrahydro-2′H-spiro [indole-3,4′-pyrrolo[3,4-c]pyrazole]-2,6′-dione] has a Ki of 152 nM.
O=C1C(O)=C(Sc2ccc(Cl)cc2)[C@@]2(C(=O)Nc3cc(Cl)ccc32)N1c1cccc(Cl)c1 [Compound 56, (3R)-6-chloro-1′-(3-chlorophenyl)-3′[(4-chlorophenyl)sulfanyl]-4′-hydroxy-1,1′,2,5′-tetrahydrospiro[indole-3,2′-pyrrole]-2,5′-dione] gave a Ki of 100 nM.
COc1cccc(OC)c1-n1nc2c(c1C(C)C)C1(C(=O)Nc3cc(Cl)ccc31)N(c1cc(Cl)ccc1C)C2=O (centres unmarked) [Compound 70, 6-chloro-5′-(5-chloro-2-methylphenyl)-2′-(2,6-dimethoxyphenyl)-3′-(propan-2-yl)-1,2,5′,6′-tetrahydro-2′H-spiro[indole-3,4′-pyrrolo[3,4-c]pyrazole]-2,6′-dione] gave a Ki of 120 nM.
Work on O=C1C(O)=C(c2ccccc2)C2(C(=O)Nc3cc(F)ccc32)N1c1cccc(Cl)c1 (centres unmarked) [Compound 42, 1′-(3-chlorophenyl)-6-fluoro-4′-hydroxy-3′-phenyl-1,1′,2,5′-tetrahydrospiro[indole-3,2′-pyrrole]-2,5′-dione] yielded a Ki of 90 nM.
CC(C)(C)C(=O)C1=C(O)C(=O)N(c2cccc(Cl)c2)C12C(=O)Nc1cc(Cl)ccc12 (centres unmarked) [Compound 6, 6-chloro-1′-(3-chlorophenyl)-3′-(2,2-tert-butanoyl)-4′-hydroxy-1,1′,2,5′-tetrahydrospiro[indole-3,2′-pyrrole]-2,5′-dione] gave a Ki of 102 nM.
With CC(C)c1[nH]nc2c1C1(C(=O)Nc3cc(Cl)ccc31)N(c1cc(Cl)ccn1)C2=O (centres unmarked) [Compound 82, 6-chloro-5′-(4-chloropyridin-2-yl)-3′-(propan-2-yl)-1,2,5′,6′-tetrahydro-2′H-spiro [indole-3,4′-pyrrolo[3,4-c]pyrazole]-2,6′-dione] the Ki was 425 nM.
Compound COc1ccc(Cl)cc1N1C(=O)C(O)=C(C(=O)C(C)C)C12C(=O)Nc1cc(Cl)ccc12 (centres unmarked) [Compound 10, 6-chloro-1′-(5-chloro-2-methoxyphenyl)-4′-hydroxy-3′-(iso-propanoyl)-1,1′,2,5′-tetrahydrospiro[indole-3,2′-pyrrole]-2,5′-dione] has a Ki of 610 nM.
Compound CC1(C(=O)C2=C(O)C(=O)N(c3cccc(Cl)c3)C23C(=O)Nc2cc(Cl)ccc23)CC1 (centres unmarked) [Compound 5, 6-chloro-1′-(3-chlorophenyl)-4′-hydroxy-3′-(1-methylcyclopropanecarbonyl)-1,1′,2,5′-tetrahydrospiro[indole-3,2′-pyrrole]-2,5′-dione] has a Ki of 194 nM.
O=C1C(O)=C(Sc2ccc(Cl)cc2)[C@]2(C(=O)Nc3cc(Cl)ccc32)N1c1cccc(Cl)c1 [Compound 55, (3S)-6-chloro-1′-(3-chlorophenyl)-3′-[(4-chlorophenyl)sulfanyl]-4′-hydroxy-1,1′,2,5′-tetrahydrospiro[indole-3,2′-pyrrole]-2,5′-dione] gave a Ki of 1910 nM.
Work on CC(C)(C)CN1C(=O)C(O)=C(c2cccc(Cl)c2)C12C(=O)Nc1cc(Cl)ccc12 (centres unmarked) [Compound 36, 6-chloro-3′-(3-chlorophenyl)-1′-(2,2-dimethylpropyl)-4′-hydroxy-1,1′,2,5′-tetrahydrospiro[indole-3,2′-pyrrole]-2,5′-dione] yielded a Ki of 295 nM.
CCOC(=O)CNC1=C(C(=O)C2(C)CC2)C2(C(=O)Nc3cc(Cl)ccc32)N(c2cccc(Cl)c2)C1=O (centres unmarked) [Compound 15, ethyl 2-{[6-chloro-1′-(3-chlorophenyl)-3′-(1-methylcyclopropanecarbonyl)-2,5′-dioxo-1,1′,2,5′-tetrahydrospiro[indole-3,2′-pyrrole]-4′-yl]amino}acetate] was tested, and the Ki was 349 nM.
COc1ccc(C(=O)O)cc1-n1nc2c(c1C(C)C)C1(C(=O)Nc3cc(Cl)ccc31)N(c1cc(Cl)ccc1O)C2=O (centres unmarked) [Compound 76, 3-[6-chloro-5′-(5-chloro-2-hydroxy-phenyl)-2,6′-dioxo-3′-(propan-2-yl)-1,2,5′,6′-tetrahydro-2′H-spiro[indole-3,4′-pyrrolo[3,4-c]pyrazole]-2′-yl]-4-methoxybenzoic acid] was tested, and the Ki was 3.6 nM.
O=C(O)CNC1=C(c2ccccc2)C2(C(=O)Nc3cc(Cl)ccc32)N(c2cccc(Cl)c2)C1=O (centres unmarked) [Compound 49, 2-{[6-chloro-1′-(3-chlorophenyl)-2,5′-dioxo-3′-phenyl-1,1′,2,5′-tetrahydrospiro [indole-3,2′-pyrrole]-4′-yl]amino}acetic acid] was tested, and the Ki was 38 nM.
For Cc1ccc(Cl)cc1N1C(=O)C(O)=C(C(=O)C(C)C)C12C(=O)Nc1cc(Cl)ccc12 (centres unmarked) [Compound 8, 6-chloro-1′-(5-chloro-2-methylphenyl)-4′-hydroxy-3′-(iso-propanoyl)-1,1′,2,5′-tetrahydrospiro[indole-3,2′-pyrrole]-2,5′-dione], the Ki was 120 nM.
CC(C)OCC(C)(C)C(=O)C1=C(O)C(=O)N(c2cccc(Cl)c2)C12C(=O)Nc1cc(Cl)ccc12 (centres unmarked) [Compound 13, 6-chloro-1′-(3-chlorophenyl)-3′-[2,2-dimethyl-3-(propan-2-yloxy)propanoyl]-4′-hydroxy-1,1′,2,5′-tetrahydrospiro[indole-3,2′-pyrrole]-2,5′-dione] gave a Ki of 196 nM.

Same assay, conditions: G=S
With O=C1C(O)=C(Sc2ccc(Cl)cc2)[C@]2(C(=O)Nc3cc(Cl)ccc32)N1c1cccc(Cl)c1 [Compound 55, (3S)-6-chloro-1′-(3-chlorophenyl)-3′-[(4-chlorophenyl)sulfanyl]-4′-hydroxy-1,1′,2,5′-tetrahydrospiro[indole-3,2′-pyrrole]-2,5′-dione] the “times less potent than Compound 56 (enantiomer)” value was “about 19 times”.
